Measurements as given in patent US20090136460A1 (VANDERBILT UNIVERSITY, priority 2007, published 2009).
Where two headings read alike, the source gives them in different places. Each block holds one molecule with its values, some of them ahead of it.

Experiments:
[1] = test system: HMVEC-c cells; assay: cAMP accumulation in HMVEC-c cells; assay type: cell-based, human
From the text: Primary cultures of human cardiac microvascular endothelial cells (HMVEC-c) were obtained from Cambrex (Walkersville, Md.), and cultured using EGM™-2 MV growth medium (Cambrex). HMVEC-c from passages 2 to 5 were used. Measurement of cAMP accumulation.

[2] = test system: CE-EPC adhesion to HMVEC-c cells; assay: Adhesion of human culture-expanded EPCs (CE-EPCs) to HMVEC-c cells; conditions: increasing concentrations
[3] = test system: eEPC adhesion to MCEC-1 cells; assay: eEPC adhesion to MCEC-1 cells under flow conditions; assay type: cell-based, mouse; conditions: 10 μmol/L; shear stress 0.75 and 1 dyne/cm^2; 10 minutes
Protocol: Analysis of cell adhesion under flow conditions. Adhesion assays under flow conditions were performed using a parallel plate flow chamber (Glycotech, Rockville, Md.) following the manufacturer's instructions. Cell suspension or cell-free medium were drown into chambers by a syringe pump (Model 44, Harvard Apparatus, Inc., Holliston, Mass.) at a constant rate to generate a desired wall shear stress (τ, dynes/cm2) using the formula τ=6Qμ/a^2b, where Q is flow rate, μ is medium viscosity, b is channel width, and a is channel height. […] Cell adhesion was determined by analysis of digitized video recordings using NIH Image software. Cell-based P-selectin enzyme-linked immunoassay To analyze cell-surface P-selectin expression, the inventors used a previously published method (Cleator et al., 2005). […] After washing and blocking, cells were incubated with 5 μg/mL rat anti-mouse CD62P antibodies (Fitzgerald Industries) or rat isotype-matched control antibody (BD Biosciences) for 1 hour. After washing, a secondary goat anti-rat horseradish peroxidase-conjugated antibody (Jackson ImmunoResearch, West Grove, Pa.) was added for 1 hour followed by washing and then analyzed at […] after addition of substrate.

[4] = test system: eEPCs; assay: cAMP accumulation in mouse eEPCs (forskolin, NECA); conditions: FIG. 1B
[5] = test system: eEPC adhesion to MCEC-1 cells; assay: eEPC adhesion to MCEC-1 cells under static conditions; assay type: cell-based, mouse; conditions: for IC50: read-out: IC50, inhibition of NECA-induced eEPC adhesion
[6] = test system: A2B adenosine receptor; conditions: [15] Martin et al. (1993); NECA-stimulated atrium (A1) or aorta (A2A); cited from earlier work
[7] = biological target: T1, A2B receptors (Mus musculus, UniProt Q60614); assay: NECA-stimulated cAMP accumulation in MCEC-1 cells; conditions: data from the current study (no reference); for Affinity or potency (Ki, KD, KB, IC50 or EC50) at A2B, mouse (m), current study: 95% CI in parentheses
T1 sequence (Q60614 1-332): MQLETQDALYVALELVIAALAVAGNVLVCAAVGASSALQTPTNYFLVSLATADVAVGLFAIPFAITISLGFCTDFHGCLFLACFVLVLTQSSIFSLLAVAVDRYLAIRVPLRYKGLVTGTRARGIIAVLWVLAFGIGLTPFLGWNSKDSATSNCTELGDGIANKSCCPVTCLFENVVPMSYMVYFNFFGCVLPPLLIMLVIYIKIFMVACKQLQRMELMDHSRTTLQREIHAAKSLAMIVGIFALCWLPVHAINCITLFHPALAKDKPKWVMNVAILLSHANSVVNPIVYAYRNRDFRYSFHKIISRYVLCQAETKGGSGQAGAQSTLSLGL

[8] = biological target: A2A adenosine receptor (Cavia porcellus, UniProt P46616); conditions: [15] Martin et al. (1993); NECA-stimulated atrium (A1) or aorta (A2A); cited from earlier work
Chain of A2A adenosine receptor (Cavia porcellus, UniProt P46616) (P46616 whole entry): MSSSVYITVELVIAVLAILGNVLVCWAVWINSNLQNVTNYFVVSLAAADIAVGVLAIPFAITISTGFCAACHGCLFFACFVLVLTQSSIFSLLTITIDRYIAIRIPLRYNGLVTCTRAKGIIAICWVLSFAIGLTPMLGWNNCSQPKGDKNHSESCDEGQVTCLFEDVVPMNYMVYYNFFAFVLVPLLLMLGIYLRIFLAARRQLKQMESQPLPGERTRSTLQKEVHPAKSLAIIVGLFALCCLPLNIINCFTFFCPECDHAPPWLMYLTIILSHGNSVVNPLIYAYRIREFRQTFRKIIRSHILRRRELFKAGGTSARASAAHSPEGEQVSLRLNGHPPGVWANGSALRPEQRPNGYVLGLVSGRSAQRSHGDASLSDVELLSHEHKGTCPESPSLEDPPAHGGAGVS

[9] = biological target: T2, A2A adenosine receptor (Mus musculus, UniProt Q60612); assay: Potency at mouse receptor, current study, in A2A of Table 1; assay type: cell-based; conditions: data from the current study (no reference)
T2 construct: from tissue; host or cells: isolated perfused C57Bl/6 mouse heart (my inference)
T2 sequence (Q60612 1-326): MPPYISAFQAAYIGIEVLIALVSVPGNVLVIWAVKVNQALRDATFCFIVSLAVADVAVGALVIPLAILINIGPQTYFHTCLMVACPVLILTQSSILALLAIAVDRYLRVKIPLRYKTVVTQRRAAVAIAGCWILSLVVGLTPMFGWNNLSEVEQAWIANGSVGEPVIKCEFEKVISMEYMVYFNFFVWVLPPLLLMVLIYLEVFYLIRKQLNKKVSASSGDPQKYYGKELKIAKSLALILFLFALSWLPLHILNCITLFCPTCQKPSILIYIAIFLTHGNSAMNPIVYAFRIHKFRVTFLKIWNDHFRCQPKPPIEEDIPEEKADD
From the text: Measurement of cAMP accumulation.

[10] = biological target: T3, A1 receptors (Mus musculus, UniProt Q60612); assay: Inhibition of forskolin-stimulated cAMP accumulation in mouse eEPCs; conditions: read-out: EC50, antagonism of the action of CPA on forskolin-stimulated cAMP accumulation; eEPCs; 10 nmol/L CPA; 1 μmol/L forskolin
T3 sequence (Q60612 1-326): T2 sequence (Q60612 1-326)

[11] = biological target: T4, A2B adenosine receptor (Homo sapiens, UniProt P29275); conditions: [11] Feoktistov and Biaggioni (1998); NECA-stimulated HEL cells; cited from earlier work
T4 sequence (P29275 1-332): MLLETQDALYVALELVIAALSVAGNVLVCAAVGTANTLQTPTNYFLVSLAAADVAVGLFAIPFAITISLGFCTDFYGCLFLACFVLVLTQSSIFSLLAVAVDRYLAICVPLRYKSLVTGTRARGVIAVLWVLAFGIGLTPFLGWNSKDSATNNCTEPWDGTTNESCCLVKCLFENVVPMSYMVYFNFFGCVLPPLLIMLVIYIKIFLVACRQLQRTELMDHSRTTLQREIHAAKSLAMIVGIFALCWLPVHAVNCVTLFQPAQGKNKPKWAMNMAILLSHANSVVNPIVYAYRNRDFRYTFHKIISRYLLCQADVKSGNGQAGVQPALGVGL

[12] = biological target: A2A adenosine receptor (Rattus norvegicus, UniProt P30543); conditions: cited from earlier work
Chain of A2A adenosine receptor (Rattus norvegicus, UniProt P30543) (P30543 whole entry): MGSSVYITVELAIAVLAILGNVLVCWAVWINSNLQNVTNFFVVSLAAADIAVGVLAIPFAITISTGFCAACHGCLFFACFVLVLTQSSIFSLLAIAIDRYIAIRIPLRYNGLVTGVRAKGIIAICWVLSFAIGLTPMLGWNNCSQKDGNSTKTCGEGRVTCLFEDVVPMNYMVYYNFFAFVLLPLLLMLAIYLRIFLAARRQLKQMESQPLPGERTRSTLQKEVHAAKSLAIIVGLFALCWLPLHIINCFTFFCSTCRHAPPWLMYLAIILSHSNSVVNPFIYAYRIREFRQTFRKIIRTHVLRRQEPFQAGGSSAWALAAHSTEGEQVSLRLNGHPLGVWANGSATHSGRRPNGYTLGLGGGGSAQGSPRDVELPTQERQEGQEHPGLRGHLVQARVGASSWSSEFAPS

[13] = biological target: A2A adenosine receptor (Mus musculus, UniProt Q60613); conditions: [13] Lopes et al. (2004), striatum, radioligand [3H]SCH58261, cited from earlier work
Chain of A2A adenosine receptor (Mus musculus, UniProt Q60613) (Q60613 whole entry): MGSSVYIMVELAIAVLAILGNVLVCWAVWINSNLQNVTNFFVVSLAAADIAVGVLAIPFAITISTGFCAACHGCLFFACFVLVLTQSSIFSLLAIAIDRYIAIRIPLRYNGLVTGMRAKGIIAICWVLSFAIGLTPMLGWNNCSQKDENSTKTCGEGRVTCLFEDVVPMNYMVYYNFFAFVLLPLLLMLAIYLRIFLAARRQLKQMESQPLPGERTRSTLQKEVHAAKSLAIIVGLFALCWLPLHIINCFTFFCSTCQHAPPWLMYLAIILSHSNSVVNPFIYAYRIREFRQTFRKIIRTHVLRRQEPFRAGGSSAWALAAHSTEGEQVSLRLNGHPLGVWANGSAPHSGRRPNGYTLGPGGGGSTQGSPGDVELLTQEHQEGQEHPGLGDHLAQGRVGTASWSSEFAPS

Structure (SMILES): CCNC(=O)[C@H]1O[C@@H](n2cnc3c(N)ncnc32)[C@H](O)[C@@H]1O [NECA, 5′-N-ethylcarboxamidoadenosine]
Stimulation of cAMP accumulation [1]: 5.1±0.1 fold
Effect on CE-EPC adhesion to HMVEC-c cells [2]: stimulated CE-EPC adhesion
Effect on eEPC adhesion under laminar flow [3]: significantly increased
Effect on cAMP in eEPCs [4]: did not elevate cAMP
Time of half-maximal effect on eEPC adhesion ([5]; 1 μmol/L NECA): 5 min
EC50 ([5]; Mus musculus, 0.5 h, 30 minutes, read-out: EC50, increase of eEPC adhesion): 139 nM
eEPC adhesion ([5]; maximal, concentration-dependent, 30 minutes, basal 4.5±0.3%): 21.3±1.4%

Affinity or potency at A2B, mouse (m), current study, log [7]: 65,610); −4.4 log mol/L
Affinity or potency (Ki, KD, KB, IC50 or EC50) at A2B, mouse (m), current study [7]: m 39,350 (23,600- nmol/L
Affinity or potency at A2A, mouse (m), current study, log [9]: −6.3 log mol/L
IC50 ([5]; 1 μmol/L NECA): 1500 nM
EC50 [10]: 511 nM
Structure (SMILES): Cn1cnc2c(NC3CC4CCC3C4)ncnc21 (stereo not shown) [N-0861]
Affinity or potency at A2B, guinea pig (gp) [6]: gp 56,200 nmol/L
Affinity or potency at A2B, guinea pig (gp), log [6]: (±11,400), −4.3 [15] log mol/L
Affinity or potency at A2A, guinea pig (gp) [8]: 575 (±86) nmol/L
Affinity or potency at A2A, guinea pig (gp), log [8]: 6.2 log mol/L

Structure (SMILES): Nc1nc2c(cnn2CCc2ccccc2)c2nc(-c3ccco3)nn12 [SCH58261, 5-amino-7-(phenylethyl)-2-(2-furyl)-pyrazolo-[4,3-e]-1,2,4-triazolo-[1,5-c]-pyrimidine]
Affinity or potency at A2B, human (h) [11]: > 100 nmol/L
Affinity or potency at A2B, human (h), log [11]: > −5 log mol/L
Affinity or potency at A2B, mouse (m), current study, log [7]: 2,486); −5.7 log mol/L
Affinity or potency (Ki, KD, KB, IC50 or EC50) at A2B, mouse (m), current study [7]: m 1,868 (1,404- nmol/L
Affinity or potency at A2A, rat (r), log [12]: r 2.3 (2-2.7); −8.6 [12] log mol/L
IC50 ([5]; Mus musculus): 1700 nM
Effect on NECA-induced eEPC adhesion at lower concentrations ([5]; concentrations that selectively block A2A receptors, 1 μmol/L NECA): no effect
Affinity or potency at A2A, mouse (m), log [13]: −9.0 log mol/L
Ki ([13]; read-out: Affinity or potency at A2A, mouse (m)): 1 nM
